Laboratory results from article PMC7180638, “Synthesis of Pyrrolidine Monocyclic Analogues of Pochonicine and Its Stereoisomers: Pursuit of Simplified Structures and Potent β-N-Acetylhexosaminidase Inhibition” (Molecules, 2020).
Counter-ions that a name gives are not always drawn. Like-named read-outs stand apart in the source and are kept apart here.

Legend:
Assay type in all cases: biochemical
[1] = biological target: T1, β-Galactosidase (Bovine liver) (Bos taurus, UniProt F1MNT6); experiment: β-Galactosidase (bovine liver) inhibition
T1 sequence (F1MNT6 1-469): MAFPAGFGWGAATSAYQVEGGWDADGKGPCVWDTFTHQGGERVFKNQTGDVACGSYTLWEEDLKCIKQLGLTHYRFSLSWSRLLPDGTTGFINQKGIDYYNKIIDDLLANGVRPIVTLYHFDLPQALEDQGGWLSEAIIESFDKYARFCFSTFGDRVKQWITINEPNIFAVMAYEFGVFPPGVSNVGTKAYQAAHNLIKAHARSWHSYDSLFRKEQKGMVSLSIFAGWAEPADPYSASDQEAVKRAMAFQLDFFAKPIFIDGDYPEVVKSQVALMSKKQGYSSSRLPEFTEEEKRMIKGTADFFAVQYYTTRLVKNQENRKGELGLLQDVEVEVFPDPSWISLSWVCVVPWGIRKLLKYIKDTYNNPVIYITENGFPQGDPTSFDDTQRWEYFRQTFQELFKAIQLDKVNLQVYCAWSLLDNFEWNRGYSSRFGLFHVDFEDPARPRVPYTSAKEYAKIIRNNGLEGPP
Experimental: (§1) With rat intestinal maltase as an exception, other enzymes were purchased from Sigma-Aldrich Chemical Co. (St. Louis, MO, USA). Brush border membranes prepared from rat small intestine according to the method of Kessler et al. were assayed at pH 6.8 for rat intestinal maltase using maltose. The released D-glucose was determined colorimetrically using the Glucose CII-test Wako (Wako Pure Chemical Ind.; Osaka, Japan). Other glycosidase activities were determined using an appropriate p-nitrophenyl glycoside as substrate in a buffer solution at the optimal pH value of each enzyme. The reaction was stopped by adding 400 mM Na2CO3. The released p-nitrophenol was measured spectrometrically at 400 nm.

[2] = biological target: T2, α,α-Trehalase (Porcine kidney) (Sus scrofa, UniProt I3LIR5); experiment: α,α-Trehalase (porcine kidney) inhibition
T2 construct: purchased Sigma-Aldrich Chemical Co; host or cells: porcine kidney
T2 sequence (I3LIR5 24-583): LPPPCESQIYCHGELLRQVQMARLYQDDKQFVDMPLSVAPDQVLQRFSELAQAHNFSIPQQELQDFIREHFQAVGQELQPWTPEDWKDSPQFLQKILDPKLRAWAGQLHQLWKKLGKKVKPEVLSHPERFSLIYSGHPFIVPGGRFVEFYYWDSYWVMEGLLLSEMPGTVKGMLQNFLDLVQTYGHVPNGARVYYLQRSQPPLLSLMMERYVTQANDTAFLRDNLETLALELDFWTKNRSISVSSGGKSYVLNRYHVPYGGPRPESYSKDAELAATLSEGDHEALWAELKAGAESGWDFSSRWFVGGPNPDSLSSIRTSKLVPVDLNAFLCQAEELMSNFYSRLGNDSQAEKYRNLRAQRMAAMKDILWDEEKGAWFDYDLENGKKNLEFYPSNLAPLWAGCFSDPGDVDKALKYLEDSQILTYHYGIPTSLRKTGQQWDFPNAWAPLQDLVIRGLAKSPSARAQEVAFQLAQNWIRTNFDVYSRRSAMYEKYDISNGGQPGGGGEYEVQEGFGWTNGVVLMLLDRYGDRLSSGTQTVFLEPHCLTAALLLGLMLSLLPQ
Experimental: as §1

[3] = biological target: T3, α-Glucosidase (Rice) (Oryza sativa subsp. japonica, UniProt Q653V7); experiment: α-Glucosidase (rice) inhibition
T3 construct: purchased Sigma-Aldrich Chemical Co
Experimental: as §1

[4] = biological target: T4, α-Mannosidase (Jack bean) (Canavalia ensiformis, UniProt C0HJB3); experiment: α-Mannosidase (Jack bean) inhibition
T4 construct: purchased Sigma-Aldrich Chemical Co
T4 sequence (C0HJB3 1-981): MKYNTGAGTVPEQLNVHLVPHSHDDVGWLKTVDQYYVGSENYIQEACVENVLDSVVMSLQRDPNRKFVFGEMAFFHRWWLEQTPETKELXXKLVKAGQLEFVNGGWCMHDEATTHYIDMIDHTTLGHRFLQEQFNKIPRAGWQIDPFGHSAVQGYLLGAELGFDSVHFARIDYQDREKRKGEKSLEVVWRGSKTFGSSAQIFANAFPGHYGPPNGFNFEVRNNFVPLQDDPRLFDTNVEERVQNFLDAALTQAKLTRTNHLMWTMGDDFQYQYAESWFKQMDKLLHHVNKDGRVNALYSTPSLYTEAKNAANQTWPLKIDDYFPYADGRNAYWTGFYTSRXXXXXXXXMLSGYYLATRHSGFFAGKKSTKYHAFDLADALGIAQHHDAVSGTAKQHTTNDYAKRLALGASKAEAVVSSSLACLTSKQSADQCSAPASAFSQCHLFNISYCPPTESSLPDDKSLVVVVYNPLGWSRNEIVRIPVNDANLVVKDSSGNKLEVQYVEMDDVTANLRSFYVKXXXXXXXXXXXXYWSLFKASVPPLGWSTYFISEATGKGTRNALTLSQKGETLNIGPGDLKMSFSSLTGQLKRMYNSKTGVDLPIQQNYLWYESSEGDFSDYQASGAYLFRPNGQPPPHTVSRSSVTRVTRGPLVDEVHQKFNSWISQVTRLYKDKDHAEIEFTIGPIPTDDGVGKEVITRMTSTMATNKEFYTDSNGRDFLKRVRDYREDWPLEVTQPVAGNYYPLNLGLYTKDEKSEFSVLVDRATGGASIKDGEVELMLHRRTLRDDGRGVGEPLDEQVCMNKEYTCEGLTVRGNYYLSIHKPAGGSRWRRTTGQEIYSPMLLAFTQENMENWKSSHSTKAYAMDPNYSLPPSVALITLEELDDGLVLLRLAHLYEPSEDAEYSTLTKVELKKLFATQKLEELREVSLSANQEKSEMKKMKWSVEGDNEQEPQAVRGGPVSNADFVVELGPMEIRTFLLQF
Experimental: as §1

[5] = biological target: T5, β-Glucuronidase (E. coli) (Escherichia coli, UniProt P05804); experiment: β-Glucuronidase (E. coli) inhibition
T5 construct: purchased Sigma-Aldrich Chemical Co
Experimental: as §1

[6] = biological target: β-N-Acetylhexosaminidase (HL60); experiment: β-N-Acetylhexosaminidase (HL60) inhibition; conditions: for IC50: β-N-Acetylhexosaminidase (β-GlcNAcase); for Inhibition % at 1000 μM: β-N-Acetylhexosaminidase
Experimental: as §1

[7] = biological target: β-N-Acetylhexosaminidase (Jack bean); experiment: β-N-Acetylhexosaminidase (Jack bean) inhibition; conditions: β-N-Acetylhexosaminidase (β-GlcNAcase), read-out: IC50
Experimental: as §1

[8] = biological target: β-N-Acetylhexosaminidase (Bovine liver); experiment: β-N-Acetylhexosaminidase (bovine liver) inhibition; conditions: for IC50: β-N-Acetylhexosaminidase (β-GlcNAcase)
Experimental: as §1

[9] = biological target: T6, Amyloglucosidase (A. niger) (Aspergillus niger, UniProt P69328); experiment: Amyloglucosidase (A. niger) inhibition
T6 construct: purchased Sigma-Aldrich Chemical Co
Experimental: as §1

[10] = biological target: β-N-Acetylgalactosaminidase (HL60); experiment: β-N-Acetylgalactosaminidase (HL60) inhibition
Experimental: as §1

[11] = biological target: α-Glucosidase (Yeast) (Saccharomyces cerevisiae, UniProt P53341); experiment: α-Glucosidase (yeast) inhibition
Experimental: as §1

[12] = 1000 μM, read-out: Inhibition % at 1000 μM
[13] = read-out: Inhibition % at 1000 μM
[14] = α-Glucosidase, Yeast, read-out: IC50

Sequence of α-Glucosidase (Yeast) (P53341 whole entry): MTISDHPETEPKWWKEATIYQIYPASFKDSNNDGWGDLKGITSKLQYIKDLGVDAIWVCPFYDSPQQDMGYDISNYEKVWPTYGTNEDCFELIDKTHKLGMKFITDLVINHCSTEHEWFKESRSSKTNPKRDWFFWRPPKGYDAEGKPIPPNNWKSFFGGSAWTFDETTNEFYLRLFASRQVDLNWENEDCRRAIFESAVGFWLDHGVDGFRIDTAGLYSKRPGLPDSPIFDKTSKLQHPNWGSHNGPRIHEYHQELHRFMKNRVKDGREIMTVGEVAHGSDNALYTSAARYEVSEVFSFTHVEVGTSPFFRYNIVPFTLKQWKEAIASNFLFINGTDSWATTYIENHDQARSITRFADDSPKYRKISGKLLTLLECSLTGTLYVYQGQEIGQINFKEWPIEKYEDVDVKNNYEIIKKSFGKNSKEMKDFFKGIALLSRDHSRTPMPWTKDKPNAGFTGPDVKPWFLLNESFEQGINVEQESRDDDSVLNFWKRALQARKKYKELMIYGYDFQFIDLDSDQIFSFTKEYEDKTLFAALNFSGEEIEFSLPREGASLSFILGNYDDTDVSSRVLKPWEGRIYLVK
T3 sequence (Q653V7 34-885): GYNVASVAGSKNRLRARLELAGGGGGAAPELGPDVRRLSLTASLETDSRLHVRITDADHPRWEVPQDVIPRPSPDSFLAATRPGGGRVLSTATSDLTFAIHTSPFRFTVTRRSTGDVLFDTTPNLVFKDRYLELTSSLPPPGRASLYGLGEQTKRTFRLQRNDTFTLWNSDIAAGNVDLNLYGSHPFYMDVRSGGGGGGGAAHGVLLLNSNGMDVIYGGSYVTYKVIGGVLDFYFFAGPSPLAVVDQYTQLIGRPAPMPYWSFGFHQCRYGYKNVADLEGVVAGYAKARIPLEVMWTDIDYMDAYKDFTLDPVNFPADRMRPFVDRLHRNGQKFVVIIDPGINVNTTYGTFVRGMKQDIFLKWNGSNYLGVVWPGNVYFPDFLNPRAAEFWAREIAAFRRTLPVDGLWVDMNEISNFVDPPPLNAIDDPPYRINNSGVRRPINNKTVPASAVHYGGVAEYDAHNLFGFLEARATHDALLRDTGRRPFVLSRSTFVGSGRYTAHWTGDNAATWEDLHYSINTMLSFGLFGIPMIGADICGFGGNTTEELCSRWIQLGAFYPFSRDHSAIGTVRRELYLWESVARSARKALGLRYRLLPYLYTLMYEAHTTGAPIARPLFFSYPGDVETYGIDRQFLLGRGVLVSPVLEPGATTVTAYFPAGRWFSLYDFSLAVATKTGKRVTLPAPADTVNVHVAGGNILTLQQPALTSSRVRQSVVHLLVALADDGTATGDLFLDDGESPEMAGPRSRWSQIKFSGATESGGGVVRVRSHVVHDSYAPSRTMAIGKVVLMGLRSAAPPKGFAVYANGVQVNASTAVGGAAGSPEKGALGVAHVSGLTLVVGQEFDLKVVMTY
T6 sequence (P69328 25-640): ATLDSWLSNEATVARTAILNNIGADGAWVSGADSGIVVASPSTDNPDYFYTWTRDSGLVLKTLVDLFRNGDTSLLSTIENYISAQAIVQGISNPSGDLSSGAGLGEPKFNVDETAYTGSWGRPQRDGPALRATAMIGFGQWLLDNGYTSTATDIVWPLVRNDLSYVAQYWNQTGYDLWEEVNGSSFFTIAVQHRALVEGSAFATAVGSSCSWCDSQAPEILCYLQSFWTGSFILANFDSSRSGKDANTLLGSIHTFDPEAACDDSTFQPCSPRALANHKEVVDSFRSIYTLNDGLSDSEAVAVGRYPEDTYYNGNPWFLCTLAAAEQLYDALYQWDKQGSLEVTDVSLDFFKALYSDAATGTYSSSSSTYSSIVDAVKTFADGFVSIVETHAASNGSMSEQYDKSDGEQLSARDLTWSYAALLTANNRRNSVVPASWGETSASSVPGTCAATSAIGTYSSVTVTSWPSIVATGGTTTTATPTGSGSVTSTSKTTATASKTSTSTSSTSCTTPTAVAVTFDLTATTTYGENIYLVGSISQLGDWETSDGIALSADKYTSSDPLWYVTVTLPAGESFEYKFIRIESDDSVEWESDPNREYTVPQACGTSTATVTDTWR
T5 sequence (P05804 whole entry): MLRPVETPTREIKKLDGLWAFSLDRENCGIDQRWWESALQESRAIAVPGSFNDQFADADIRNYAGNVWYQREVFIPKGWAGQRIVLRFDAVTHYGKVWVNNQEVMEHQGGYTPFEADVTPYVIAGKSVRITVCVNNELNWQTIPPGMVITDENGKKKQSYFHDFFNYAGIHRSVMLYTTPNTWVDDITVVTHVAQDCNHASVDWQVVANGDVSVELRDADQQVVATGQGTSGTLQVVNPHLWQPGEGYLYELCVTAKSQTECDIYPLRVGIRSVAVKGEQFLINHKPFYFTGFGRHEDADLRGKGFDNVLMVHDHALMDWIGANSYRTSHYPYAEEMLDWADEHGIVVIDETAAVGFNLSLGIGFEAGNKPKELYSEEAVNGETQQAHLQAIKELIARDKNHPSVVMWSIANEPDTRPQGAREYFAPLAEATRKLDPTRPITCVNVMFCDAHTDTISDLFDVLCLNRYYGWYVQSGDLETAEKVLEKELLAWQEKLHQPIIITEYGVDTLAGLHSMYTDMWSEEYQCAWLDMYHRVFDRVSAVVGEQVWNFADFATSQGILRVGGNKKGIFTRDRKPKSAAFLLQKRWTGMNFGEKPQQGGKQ

Compound: CC(=O)NC[C@H]1N[C@H](CO)[C@H](O)[C@H]1O [F-10b, 1-N-acetylamino-2,5-imino-1,2,5-trideoxy-D-iditol hydrochloride]
- inhibition at 1000 µM [1, 12]: 4.2%
- inhibition at 1000 µM ([1]; read-out: IC50): < 50%
- inhibition at 1000 µM [2, 12]: 0%
- inhibition at 1000 µM ([2]; read-out: IC50): < 50%
- inhibition at 1000 µM [3, 12]: 0%
- inhibition at 1000 µM ([3]; read-out: IC50): < 50%
- inhibition at 1000 µM [4, 12]: 1.6%
- inhibition at 1000 µM ([4]; read-out: IC50): < 50%
- inhibition at 1000 µM [5, 12]: 0%
- inhibition at 1000 µM ([5]; read-out: IC50): < 50%
- IC50 [6]: NI (No Inhibition (less than 50% at 1000 μM))
- Inhibition % at 1000 μM [6]: 16.6%
- IC50 [7]: 98 µM
- IC50 ([8]; read-out: IC50): 652 µM
- inhibition at 1000 µM [9, 12]: 5.7%
- inhibition at 1000 µM ([9]; read-out: IC50): < 50%
- IC50 [10]: NI (No Inhibition (less than 50% at 1000 μM))
- Inhibition % at 1000 μM [10]: 36.1%
- inhibition at 1000 µM [11, 13]: 0%
- inhibition at 1000 µM [11, 14]: < 50%

Compound: CC(=O)NC[C@H]1N[C@@H](CO)[C@H](O)[C@@H]1O [G-10, 1-N-acetylamino-2,5-imino-1,2,5-trideoxy-D-allitol hydrochloride]
- inhibition at 1000 µM [1, 12]: 2.9%
- inhibition at 1000 µM ([1]; read-out: IC50): < 50%
- inhibition at 1000 µM [2, 12]: 5.6%
- inhibition at 1000 µM ([2]; read-out: IC50): < 50%
- inhibition at 1000 µM [3, 12]: 0%
- inhibition at 1000 µM ([3]; read-out: IC50): < 50%
- inhibition at 1000 µM [4, 12]: 4%
- inhibition at 1000 µM ([4]; read-out: IC50): < 50%
- inhibition at 1000 µM [5, 12]: 0%
- inhibition at 1000 µM ([5]; read-out: IC50): < 50%
- IC50 [6]: NI (No Inhibition (less than 50% at 1000 μM))
- Inhibition % at 1000 μM [6]: 18.8%
- IC50 [7]: 26 µM
- IC50 ([8]; read-out: IC50): 299 µM
- inhibition at 1000 µM [9, 12]: 7.6%
- inhibition at 1000 µM ([9]; read-out: IC50): < 50%
- IC50 [10]: NI (No Inhibition (less than 50% at 1000 μM))
- Inhibition % at 1000 μM [10]: 15.9%
- inhibition at 1000 µM [11, 13]: 0%
- inhibition at 1000 µM [11, 14]: < 50%

Compound: CC(=O)NC[C@@H]1N[C@H](CO)[C@@H](O)[C@H]1O [H-10, 1-N-acetylamino-2,5-imino-1,2,5-trideoxy-L-allitol hydrochloride]
- inhibition at 1000 µM [1, 12]: 3.6%
- inhibition at 1000 µM ([1]; read-out: IC50): < 50%
- inhibition at 1000 µM [2, 12]: 40.9%
- inhibition at 1000 µM ([2]; read-out: IC50): < 50%
- inhibition at 1000 µM [3, 12]: 5.6%
- inhibition at 1000 µM ([3]; read-out: IC50): < 50%
- inhibition at 1000 µM [4, 12]: 9.5%
- inhibition at 1000 µM ([4]; read-out: IC50): < 50%
- inhibition at 1000 µM [5, 12]: 0%
- inhibition at 1000 µM ([5]; read-out: IC50): < 50%
- IC50 [6]: NI (No Inhibition (less than 50% at 1000 μM))
- Inhibition % at 1000 μM [6]: 0.3%
- IC50 [7]: 241 µM
- IC50 [8]: NI (No Inhibition (less than 50% at 1000 μM))
- Inhibition % at 1000 μM ([8]; β-N-Acetylhexosaminidase, 1000 μM): 33.7%
- inhibition at 1000 µM [9, 12]: 8.3%
- inhibition at 1000 µM ([9]; read-out: IC50): < 50%
- IC50 [10]: NI (No Inhibition (less than 50% at 1000 μM))
- Inhibition % at 1000 μM [10]: 5.3%
- inhibition at 1000 µM [11, 13]: 0%
- inhibition at 1000 µM [11, 14]: < 50%
